Laboratory results as given in PMC8012715, “Mechanism of NanR gene repression and allosteric induction of bacterial sialic acid metabolism” (Nature Communications, 2021).

Target: T1, NanR (Escherichia coli, UniProt P0A8W0)
T1 construct: crystals by in situ chymotrypsin proteolysis
T1 sequence (P0A8W0 1-263): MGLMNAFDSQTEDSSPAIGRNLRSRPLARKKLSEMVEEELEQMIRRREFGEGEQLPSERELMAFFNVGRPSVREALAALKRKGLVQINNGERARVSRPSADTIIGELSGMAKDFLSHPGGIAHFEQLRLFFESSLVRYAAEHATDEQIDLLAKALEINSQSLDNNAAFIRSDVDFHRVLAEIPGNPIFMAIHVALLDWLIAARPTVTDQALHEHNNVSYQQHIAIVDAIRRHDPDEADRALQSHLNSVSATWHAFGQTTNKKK
Test: isothermal titration calorimetry
Details: 20 mM Tris-HCl pH 8.0, 150 mM NaCl; 8 °C; no DNA; Zn2+-loaded protein; effector-binding domain; allosteric

## CC(=O)N[C@H]1[C@H]([C@H](O)[C@H](O)CO)OC(O)(C(=O)O)C[C@@H]1O (stereo partly shown) [Neu5Ac]
  Kd: 16 µM
